# Measurements published in patent US20070203194A1, “Ion channel modulators” (SCION PHARMACEUTICALS, INC., priority 2004, published 2007).
# Tested on: calcium channel (e.g., L-type, N-type, etc.) current
# Test: HEK assay (whole-cell patch clamp of calcium channel currents in transiently transfected HEK-293T/17 cells)
# Assay type: cell-based
# Settings: whole-cell voltage clamp, holding potential −100 mV
# Description: HEK-293T/17 cells are transiently transfected in a similar manner as described in FuGENE 6 Package Insert Version 7, April 2002, Roche Applied Science, Indianapolis, Ind. The cells are plated at 2.5×10^5 cells in 2 mL in a 6-well plate in incubator for one night and achieve a 30-40% confluence. In a small sterile tube, add sufficient serum-free medium as diluent for FuGENE Transfection Reagent (Roche Applied Science, Indianapolis, Ind.), to a total volume of 100 μL. Add 3 μL of FuGENE 6 Reagent directly into this medium. The mixture is tapped gently to mix. 2 μg of DNA solution (0.8-2.0 μg/μL) is added to the prediluted FuGENE 6 Reagent from above. The DNA/Fugene 6 mixture is gently pipetted to mix the contents and incubated for about 15 minutes at room temperature. The complex mixture is then added to the HEK-293T/17 cells, distributing it around the well, and swirled to ensure even dispersal. The cells are returned to the incubator for 24 hrs. The transfected cells are then replated at density 2.5×10^5 in a 35 mm dish with 5 glass coverslips and grow in low serum (1%) media for 24 hrs. Coverslips with isolated cells are then transferred into chamber and calcium channel (e.g., L-type, N-type, etc.) current or other currents for counter screening are recorded from the transiently transfected HEK-293T/17 cells.
# The whole-cell voltage clamp configuration of the patch clamp technique is employed to evaluate voltage-dependent calcium currents essentially as described by Thompson and Wong (1991) J. Physiol., 439: 671-689. To record calcium channel (e.g., L-type, N-type, etc.) currents for evaluation of inhibitory potency of compounds (steady-state concentration-response analysis), five pulses of 20-30 ms voltage steps to about +10 mV (the peak of the current voltage relationship) are delivered at five Hz every 30 second from a holding potential at −100 mV. Compound evaluations were carried out essentially as described by Sah D W and Bean B P (1994) Mol Pharmacol. 45(1):84-92. Table 3 contains IC50's for representative compounds.
row,SMILES,IC50 [nM]
1,COc1ccc(C(=O)CSc2nnc(-c3ccccc3OC)n2-c2ccc(C)cc2)cc1 [Compound 28],572
2,COc1ccccc1-c1nnc(SCC(=O)Nc2ccccn2)n1-c1ccc(C)cc1 [Compound 27],695
3,COc1ccc(C(=O)CSc2nnc(CNc3ccc(F)cc3)n2-c2ccc(C)cc2)cc1 [Compound 5],378
